# From PubChem BioAssay (NCI)
#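 Method: 48-hour compound exposure of cells in 96-well plates, five concentrations, linear interpolation of endpoints. GI50: concentration for 50% inhibition of growth. Definition used: TGI = concentration required for complete inhibition of growth.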
# Key:
# Assay in all cases: DTP human tumour cell line panel, 48 h
# COLO 205 colon = tested on: COLO 205 colon
# HOP-62 NSCLC = tested on: HOP-62 NSCLC
# HS 578T breast = tested on: HS 578T breast
# LOX IMVI melanoma = tested on: LOX IMVI melanoma
# SF-295 CNS = tested on: SF-295 CNS
# SF-539 CNS = tested on: SF-539 CNS
# SK-MEL-2 melanoma = tested on: SK-MEL-2 melanoma
# T-47D breast = tested on: T-47D breast
# UACC-62 melanoma = tested on: UACC-62 melanoma
# OVCAR-4 ovarian = tested on: OVCAR-4 ovarian
SMILES,TGI (COLO 205 colon) [µM],TGI (HOP-62 NSCLC) [µM],TGI (HS 578T breast) [µM],TGI (LOX IMVI melanoma) [µM],TGI (SF-295 CNS) [µM],TGI (SF-539 CNS) [µM],TGI (SK-MEL-2 melanoma) [µM],TGI (T-47D breast) [µM],TGI (UACC-62 melanoma) [µM],TGI (OVCAR-4 ovarian) [µM],GI50 (COLO 205 colon) [µM],GI50 (HOP-62 NSCLC) [µM],GI50 (HS 578T breast) [µM],GI50 (LOX IMVI melanoma) [µM],GI50 (OVCAR-4 ovarian) [µM],GI50 (SF-539 CNS) [µM],GI50 (SK-MEL-2 melanoma) [µM],GI50 (T-47D breast) [µM],GI50 (UACC-62 melanoma) [µM],GI50 (SF-295 CNS) [µM]
COc1ccc2oc(OC)c(CC=C(C)C)c(=O)c2c1C,> 100,> 100,> 100,> 100,> 100,> 100,> 100,> 100,> 100,,,,,,,,,,,
CCOC(=O)NC(NC1=NCCS1)(C(=O)OCC)C(F)(F)F (stereo not given),> 100,> 100,> 100,> 100,> 100,> 100,> 100,> 100,,> 100,,,,,,,,,,
COc1cc(/C=C/C(=O)c2c(C)nc3ccccc3c2C)ccc1OCCCOc1cc2c(cc1OC)C(=O)N1CCC[C@H]1C=N2,0.0453,0.0609,0.0577,0.0602,,0.0563,0.331,,0.0321,31.5,0.0211,0.0303,0.0209,0.0193,0.0443,0.0239,0.0877,0.041,0.017,
CC1C2CC(C(S(=O)(=O)N3CCOCC3)/C2=N\O)C1(C)C (stereo not given),> 100,> 100,> 100,> 100,> 100,> 100,,> 100,> 100,> 100,,,,,,,,,,
COC(=O)/C=C/c1ccc2c(c1)CC1(C2)Cc2cc3c(cc2C1=O)CCC3 (stereo not given),> 100,,78.9,> 100,> 100,> 100,> 100,81.8,> 100,> 100,,,,,,,,,,
CCN1CCN(c2nc3ccc([N+](=O)[O-])cc3nc2C(=O)c2ccccc2)CC1,30,35.6,,17.8,30.3,29.7,29.3,> 100,31.2,,,,,,,,,,,
CCCCCCCCCCCCCC[n+]1ccc2c(C)c3c(c(C)c2c1)c1cc(O)ccc1n3CC,,1.94,3.67,,1.08,1.52,0.774,,1.87,1.07,,0.408,0.975,,0.272,0.419,0.256,,0.468,0.289
CCOC(=O)C1OC(C2(C)OC3(OC4(C=CC3O)OC(C(C)C(=O)C(C)C(O)C(C)CC(C)c3c(Cl)cc(C)c(O)c3C(=O)O)C(C)CC4C)C(C)C2OC)CC1O (stereo not given),2.08,0.483,11.7,14.2,3.89,7.51,1.13,,1.25,4.53,,,,,,,,,,
O=C(/C=C/c1ccc(/C=C/C(=O)c2ccc(O)cc2)cc1)c1ccc(O)cc1,> 100,> 100,> 100,> 100,> 100,> 100,> 100,> 100,> 100,,,,,,,,,,,
CN1CCC(CN2c3ccccc3Sc3ccccc32)CC1,27.1,32.2,,26.4,29.3,28.5,31,,28.2,30.5,,,,,,,,,,
COc1cc(C2C(C(=O)O)=C(COC(C)=O)Oc3cc4c(cc32)OCO4)cc(OC)c1OC (stereo not given),> 100,> 100,,> 100,> 100,,> 100,,> 100,> 100,,,,,,,,,,
COC(=O)c1ccc(C)cc1/C=C1\Cc2ccc(C)cc2C1=O,25.1,39.5,59.4,25.6,41.1,28.3,,69.6,26.7,46.1,,,,,,,,,,
O=C(Cc1nccc2c1[nH]c1ccccc12)OC1C#CCSCC#C/C=C\1 (stereo not given),> 100,> 100,> 100,> 100,> 100,> 100,,> 100,> 100,> 100,,,,,,,,,,
CC1(CCCO)CCCCCCCCCC(C)(CCCO)C1=O (stereo not given),> 100,> 100,> 100,> 100,> 100,,> 100,> 100,> 100,> 100,,,,,,,,,,
N#Cc1c(N)sc2c1-c1ccccc1OC2,> 100,> 100,,> 100,,> 100,> 100,,> 100,88,,,,,,,,,,
CCOc1ccc(/C=N/[N+](C)(C)C)cc1OCC,> 10,> 10,> 10,> 10,> 10,> 10,,> 10,> 10,> 10,,,,,,,,,,
NC1CC2NC3CCCCC3NC2CC1N (stereo not given),> 100,,> 100,> 100,> 100,> 100,> 100,,> 100,,,,,,,,,,,
N=c1c2c(-c3ccccc3)c[nH]c2ncn1N,> 100,> 100,,> 100,> 100,> 100,> 100,> 100,> 100,> 100,,,,,,,,,,
Nc1nc(N)c2ncn(Cc3ccccc3CCl)c2n1,> 100,> 100,> 100,,> 100,> 100,> 100,> 100,> 100,> 100,,,,,,,,,,
CN(C)c1ccc(C(Cc2ccc3ccccc3n2)Cc2ccc3ccccc3n2)cc1,,> 100,> 100,,> 100,> 100,,> 100,> 100,,,5.84,6.22,,,4.74,,1.71,3.77,3.26
O=C1CCC(=O)N1n1c(Cc2ccc(Cl)cc2)n[nH]c1=O,> 100,,> 100,> 100,> 100,> 100,> 100,> 100,> 100,> 100,,,,,,,,,,
CN(C)c1nncc2[nH]cnc12,> 100,> 100,> 100,,> 100,> 100,> 100,> 100,> 100,,,,,,,,,,,
